Data reported in ChEMBL document CHEMBL5608241, “Discovery of Novel Non-nucleoside DOT1LR231Q Inhibitors with Improved Pharmacokinetic Properties and Anti-lung Cancer Efficacy” (J Med Chem, 2024).
Calls of active or inactive are those of the source. No cut-off for these calls is given here.

What was measured:
[1] = Toxicity in male BALB/c-nu mouse model xenografted with human NCI-H460 cells harboring DOT1L R231Q mutant assessed as effect on spleen viscera index at 20 mg/kg, ip administered five times a week for 3 weeks; format: organism-based; settings: in vivo, 504 h
NCI-H460 [2] = test: Inhibition of colony formation in human NCI-H460 cells exogenously expressing wildtype DOT1L (unknown origin) (1 to 416 residues) at 2.5 to 5 uM incubated for 7 to 14 days by crystal violet staining based light microscopic analysis; format: functional, cell-based; settings: dose 2.5-5 µM, time 7-14 day
NCI-H460 [3] = test: Effect on H3K36me2 expression in human NCI-H460 cells exogenously expressing DOT1L R231Q mutant (unknown origin) (1 to 416 residues) at 5 uM by Western blot analysis; format: functional, cell-based
NCI-H460 [4] = test: Antiinvasive activity against human NCI-H460 cells exogenously expressing DOT1L R231Q mutant (unknown origin) (1 to 416 residues) assessed as decrease in number of invading cells at 5 uM incubated for 72 hrs by crystal violet staining based transwell invasion assay relative to control; format: functional; parameters: scale not given: the % may be the effect or the level left
[5] = MRT (0 to infinity) in male Sprague-Dawley rat at 20 mg/kg, ip measured after 24 hrs by LC-MS/MS analysis; format: ADME, organism-based; settings: in vivo
NCI-H460 [6] = test: Antiinvasive activity against human NCI-H460 cells exogenously expressing wildtype DOT1L (unknown origin) (1 to 416 residues) assessed as decrease in number of invading cells at 5 uM incubated for 72 hrs by crystal violet staining based transwell invasion assay relative to control; format: functional; parameters: scale not given: the % may be the effect or the level left
NCI-H460 [7] = test: Downregulation of H3K79me2 expression in human NCI-H460 cells exogenously expressing DOT1L R231Q mutant (unknown origin) (1 to 416 residues) at 5 uM by Western blot analysis; format: functional, cell-based
[8] = MRT (0 to infinity) in male Sprague-Dawley rat at 20 mg/kg, iv measured after 24 hrs by LC-MS/MS analysis; format: ADME, organism-based; settings: in vivo
[9] = AUC (0 to t) in male Sprague-Dawley rat at 20 mg/kg, iv measured after 24 hrs by LC-MS/MS analysis; format: ADME, organism-based; settings: in vivo
NCI-H460 [10] = test: Inhibition of ERK phosphorylation in human NCI-H460 cells exogenously expressing wildtype DOT1L (unknown origin) (1 to 416 residues) at 5 uM by Western blot analysis; format: cell-based
NCI-H460 [11] = test: Effect on H3K36me2 expression in human NCI-H460 cells exogenously expressing wildtype DOT1L (unknown origin) (1 to 416 residues) at 5 uM by Western blot analysis; format: functional, cell-based
NCI-H460 [12] = test: Effect on H3K9me2 expression in human NCI-H460 cells exogenously expressing wildtype DOT1L (unknown origin) (1 to 416 residues) at 5 uM by Western blot analysis; format: functional, cell-based
NCI-H460 [13] = test: Inhibition of sphere formation in human NCI-H460 cells exogenously expressing DOT1L R231Q mutant (unknown origin) (1 to 416 residues) assessed as reduction in self-renewal at 5 uM incubated for 7 to 14 days by inverted microscopic analysis relative to control; format: functional; settings: time 7-14 day
[14] = Volume of distribution at steady state in male Sprague-Dawley rat at 20 mg/kg, iv measured after 24 hrs by LC-MS/MS analysis; format: ADME, organism-based; settings: in vivo, read-out: Vdss
[15] = Toxicity in male BALB/c-nu mouse model xenografted with human NCI-H460 cells harboring DOT1L R231Q mutant assessed as effect on kidney viscera index at 20 mg/kg, ip administered five times a week for 3 weeks; format: organism-based; settings: in vivo, 504 h
[16] = Toxicity in male BALB/c-nu mouse model xenografted with human NCI-H460 cells harboring DOT1L R231Q mutant assessed as effect on liver viscera index at 20 mg/kg, ip administered five times a week for 3 weeks; format: organism-based; settings: in vivo, 504 h
NCI-H460 [17] = test: Effect on H3K9me2 expression in human NCI-H460 cells exogenously expressing DOT1L R231Q mutant (unknown origin) (1 to 416 residues) at 5 uM by Western blot analysis; format: functional, cell-based
NCI-H460 [18] = test: Effect on H3K79me2 expression in human NCI-H460 cells exogenously expressing wildtype DOT1L (unknown origin) (1 to 416 residues) at 5 uM by Western blot analysis; format: functional, cell-based
[19] = AUC (0 to t) in male Sprague-Dawley rat at 20 mg/kg, ip measured after 24 hrs by LC-MS/MS analysis; format: ADME, organism-based; settings: in vivo
NCI-H460 [20] = test: Inhibition of ERK phosphorylation in human NCI-H460 cells exogenously expressing DOT1L R231Q mutant (unknown origin) (1 to 416 residues) at 5 uM by Western blot analysis; format: cell-based
NCI-H460 [21] = test: Antitumor activity against human NCI-H460 cells harboring DOT1L R231Q mutant xenografted in male BALB/c-nu mouse model assessed as tumor growth inhibition at 20 mg/kg, ip administered five times a week for 3 weeks relative to control; format: functional; settings: NCI-H460, 504 h, read-out: TGI
NCI-H460 [22] = test: Effect on H3K27me3 expression in human NCI-H460 cells exogenously expressing DOT1L R231Q mutant (unknown origin) (1 to 416 residues) at 5 uM by Western blot analysis; format: functional, cell-based
NCI-H460 [23] = test: Inhibition of MAPK/ERK signaling pathway in human NCI-H460 cells exogenously expressing wildtype DOT1L (unknown origin) (1 to 416 residues) assessed as decrease in RAF1 expression at 5 uM by Western blot analysis; format: cell-based
NCI-H460 [24] = test: Antimigratory activity in human NCI-H460 cells exogenously expressing wildtype DOT1L (unknown origin) (1 to 416 residues) assessed as decrease in number of migrating cells at 2.5 to 5 uM measured after 72 hrs by wound healing assay; format: functional, cell-based; settings: dose 2.5-5 µM
NCI-H460 [25] = test: Antiinvasive activity against DOT1L knockdown human NCI-H460 cells assessed as decrease in number of invading cells at 2.5 to 5 uM incubated for 72 hrs by crystal violet staining based transwell invasion assay; format: functional, cell-based; settings: dose 2.5-5 µM
NCI-H460 [26] = test: Effect on H3K4me1 expression in human NCI-H460 cells exogenously expressing DOT1L R231Q mutant (unknown origin) (1 to 416 residues) at 5 uM by Western blot analysis; format: functional, cell-based
NCI-H460 [27] = test: Antiproliferative activity against human NCI-H460 cells harboring DOT1L R231Q mutant (unknown origin) (1 to 416 residues) assessed as inhibition of cell proliferation incubated for 72 hrs by CCK-8 assay; format: functional, cell-based; settings: NCI-H460, 72 h
NCI-H460 [28] = test: Antimigratory activity in human NCI-H460 cells exogenously expressing DOT1L R231Q mutant (unknown origin) (1 to 416 residues) assessed as decrease in number of migrating cells at 2.5 to 5 uM measured after 72 hrs by wound healing assay; format: functional, cell-based; settings: dose 2.5-5 µM
NCI-H460 [29] = test: Antiinvasive activity against human NCI-H460 cells exogenously expressing DOT1L R231Q mutant (unknown origin) (1 to 416 residues) assessed as inhibition of cell invasion at 2.5 to 5 uM incubated for 72 hrs by crystal violet staining based transwell invasion assay; format: functional; settings: dose 2.5-5 µM
[30] = Clearance in male Sprague-Dawley rat at 20 mg/kg, iv measured after 24 hrs by LC-MS/MS analysis; format: ADME, organism-based; settings: in vivo

MRT inf [5]: 5.42 h
MRT inf [8]: 4.41 h
AUC(0-t) at 24 h [9]: 5980 ng·h/mL
Vd [14]: 14.4 L/kg
AUC(0-t) at 24 h [19]: 5280 ng·h/mL
IC50 (NCI-H460 [27]): 2850 nM
clearance [30]: 55.2 mL/min/kg
SMILES: CC(C)(C)c1ccc(NC(=O)NCCCN(CCCN2CCOCC2)CC2(O)CCN(c3nc(Cl)nc4sccc34)C2)cc1 (stereo not given)
Activity [1]: Non-Toxic
inhibition (NCI-H460 [2]): Active
Activity (NCI-H460 [3]): inactive
Activity (NCI-H460 [4]): 77.7%
Activity (NCI-H460 [6]): 61.5%
Activity (NCI-H460 [7]): Active
inhibition (NCI-H460 [10]): inactive
Activity (NCI-H460 [11]): inactive
Activity (NCI-H460 [12]): inactive
inhibition at 5 µM (NCI-H460 [13]): 82%
Activity [15]: Non-Toxic
Activity [16]: Non-Toxic
Activity (NCI-H460 [17]): inactive
Activity (NCI-H460 [18]): inactive
inhibition (NCI-H460 [20]): Active
inhibition in vivo at 20 mg/kg (NCI-H460 [21]): 60.6%
Activity (NCI-H460 [22]): inactive
inhibition (NCI-H460 [23]): inactive
Activity (NCI-H460 [24]): Active
Activity (NCI-H460 [25]): inactive
Activity (NCI-H460 [26]): inactive
Activity (NCI-H460 [28]): Active
Activity (NCI-H460 [29]): Active
